Oligonucleotides are written 5' to 3', each unit as a sugar letter and its base; * is a phosphorothioate linkage, no mark a phosphodiester; rarer units and linkages stand in square brackets, end groups in braces. Plain capitals give the bases only. e = 2'-O-(2-methoxyethyl) (MOE); [5mC] = 5-methylcytosine; d = 2'-deoxy (DNA)
Legend:
[1] = system: Farnesyl diphosphate synthetase (Fdps) mRNA; assay: PCR microarray analysis of liver, LDLr-/- mice: Fdps; assay type: in vivo, mouse; settings: 6 weeks
Protocol: (§1) Four groups of five male mice each were injected with a total of 1.5, 5, 15, or 50 mg/kg/week of ISIS 447118 for 6 weeks. A group of five mice was injected with a total of 50 mg/kg/week of control oligonucleotide ISIS 141923 ([…], designated herein as SEQ ID NO: 112, which has no known murine target) for 6 weeks. A control group of five mice was injected with phosphate buffered saline (PBS) twice a week for 6 weeks. Plasma samples were obtained before the start of treatment, at week 3 and at week 6. At the end of the treatment period, the mice were euthanized. Plasma and tissue samples were obtained for further analysis.
(§2) Liver samples from the mice groups were analyzed using a commercial kit for PCR microarray analysis (SA Biosciences Corp., MD), according to the manufacturer's instructions. Genes involved in lipoprotein and cholesterol metabolism were compared with the PBS control.

[2] = system: Insulin induced gene 1 (Insig1) mRNA; assay: PCR microarray analysis of liver, LDLr-/- mice: Insig1; assay type: in vivo, mouse; settings: 6 weeks
Protocol: as §1, §2

Sequence: GCAGCTCGATTCGGGCATGA (antisense eG*e[5mC]*eA*eG*e[5mC]*dT*d[5mC]*dG*dA*dT*dT*d[5mC]*dG*dG*dG*e[5mC]*eA*eT*eG*eA) [ISIS 447118]
- Fdps fold increase/decrease relative to PBS group ([1]; 1.5 mg/kg): 1.03 fold
- Fdps fold increase/decrease relative to PBS group ([1]; 5 mg/kg): 0.84 fold
- Fdps fold increase/decrease relative to PBS group ([1]; 15 mg/kg): 0.8 fold
- Fdps fold increase/decrease relative to PBS group ([1]; 50 mg/kg): 0.66 fold
- Insig1 fold increase/decrease relative to PBS group ([2]; 1.5 mg/kg): 0.96 fold
- Insig1 fold increase/decrease relative to PBS group ([2]; 5 mg/kg): 0.84 fold
- Insig1 fold increase/decrease relative to PBS group ([2]; 15 mg/kg): 0.68 fold
- Insig1 fold increase/decrease relative to PBS group ([2]; 50 mg/kg): 0.67 fold

From US20120270929A1, “MODULATION OF TTC39 EXPRESSION TO INCREASE HDL” (ISIS Pharmaceuticals, Inc., priority 2009, published 2012)
